Key:
[1] = Pharmacokinetic Experiment in Rats; type: in vivo, SD rats; conditions: Intravenous (1 mg/kg), rat plasma
Procedure: 1.1 Test animals: Male SD rats, ca. 220 g, 6-8 weeks old, 6 rats/compound. The rats were purchased from […] EXPERIMENTAL ANIMALS CO., LTD. 1.2 Test design: On the day of the test, 6 SD rats were randomly divided into groups according to body weight. The rats were fasted but had access to water for 12-14 hours one day before administration. The rats were fed 4 hours after administration. Table 9. Information for administration Vehicle for intravenous administration: 5% DMA + 5% Solutol + 90% Saline; Vehicle for oral gavage: 0.5% MC; control compound […] is namely Compound 2 in patent WO2015110826A1, and was prepared according to the method described in the patent. Rats were anesthetized with isoflurane before and after administration. Blood (0.1 ml) was collected by orbital blood collection and placed in EDTAK2 centrifuge tube. The blood sample was centrifuged at 5000 rpm at 4°C for 10 min. The plasma was collected. […] All samples were stored at -80° C till analysis and detection. Table 10. Pharmacokinetic parameters of test compounds in rat plasma

NE enzyme = conditions: background statement, no data; cited from earlier work
[2] = tested on: LPS-induced acute lung injury; conditions: background statement, no data; cited from earlier work

Row | SMILES | CL [1] [mL/min/kg] | Vdss [1] [L/kg] | NE enzyme activity in rat bone marrow (NE enzyme) | LPS-induced acute lung injury in mice [2]
1 | Cn1c(=O)oc2ccc(-c3ccc(C[C@@H](C#N)NC(=O)[C@@H]4CNCCCO4)cc3)cc21 [INS 1007, reference compound] | 2.08 | 0.738 | – | –
2 | Cn1c(=O)oc2ccc(-c3ccc(C[C@@H](C#N)NC(=O)[C@@H]4CNCCCO4)c(F)c3)cc21 [Compound A, (S)-N-((S)-1-cyano-2-(2-fluoro-4-(3-methyl-2-oxo-2,3-dihydrobenzo[d]oxazol-5-yl)phenyl)ethyl)-1,4-oxazepane-2-carboxamide] | 1.66 | 0.753 | significantly inhibit | mitigate
